Assay results: US20020081566A1, “HIV PROTEIN EPITOPES IMMUNOLOGICALLY HOMOLOGOUS TO HLA” (priority 1992, published 2002)

Experiments:
viral gp160 = target: T1, viral gp160 (Human immunodeficiency virus type 1 group M subtype B, UniProt P03377); assay type: binding, HIV; conditions: for binding to viral gp160 of AIDS serum antibodies pre-adsorbed on the peptide and eluted: sera from AIDS affected subjects, HIV western blot stripes, FIGS. 5 and 6; for reactivity of sera / antibodies raised against native gp160 in HIV positive subjects with the peptide region: sera from HIV positive subjects
T1 construct: purchased SORIN BIOMEDICA, Saluggia, Italy
Procedure: Sera from AIDS affected subjects are immunoadsorbed on columns of either S. MAP HIV, or MAP HLA 11 or MAP HLA 12 peptide coupled Sepharose (CNBR activated sepharose 4B from […]) and eluted. 1 ml of Sepharose/peptide equilibrated with 0.1 M TRIS HCl pH 8 and 0.5 M NaCl buffer is incubated for 16 hours with 100 μl of serum, washed with 0.1 M TRIS HCl ph 8 and 0.5 M NaCl. The bound antibodies are eluted with a buffer containing 0.2 M glycine pH 2 and 0.5 M NaCl. The eluted antibodies are assayed on HIV western blot commercial stripes (SORIN BIOMEDICA, Saluggia, Italy) and detected using the chemio-luminescence system from […]. […] Lane M is obtained from one of the “in toto” sera and used as control.
The same test is carried out using two sera of AIDS affected patients (FIG. 6), pre-adsorbed with the S. MAP HIV peptide (lanes A and B) or with the HIV 9 peptide (lanes C and D), and eluted.

[1] = target: recombinant gp160 protein (Human immunodeficiency virus type 1 group M subtype B, UniProt P03377); conditions: BALB/c female mice, subcutaneous, Freund's incomplete adjuvant, after third immunization; compared with control peptide serum (NMS); FIG. 1
Procedure: S.MAP HIV and S. MAP HLA peptides are injected subcutaneously to BALB/c female mice together with Freund's incomplete adjuvant. After the third immunization (for a total of three immunizations at three week intervals) mice sera are tested by an ELISA assay with the recombinant gp160 protein (from Transgene, Strasbourg) as follows: microtiter plastic wells (NUNC) are coated with 0.2 μg of protein resuspended in phospahte buffer pH 9, for 1.5 hours at 37° C., followed by washing with phosphate buffer pH 7, and by further incubating for 1 hour at 37° C. with bovine serum albumin (BSA, 1 mg/ml), to saturate the free sites of solid phase. After three washings, diluted sera in PBS, comprising BSA 1% w/v, are incubated with the coated wells for 1 hour at 37° C. After five washings in PBS, a rabbit anti-mouse Igs serum (SIGMA), 1/1000 diluted, is added. After 45 min. incubation at 37° C., wells are washed five times and 100 μl of chromogen substrate is added to each well (SORIN BIOMEDICA, Saluggia, Italy). The adsorbance is read with an automatic ELISA reader (BIORAD).

[2] = tested on: syncytium between HIV infected 8E51 LAV cells and not infected CD4+ MOLT3 cells; experiment: Syncytium formation inhibition assay; assay type: cell-based; conditions: mice sera; pre-immunization sera as specificity control; FIG. 9
Procedure: In order to check the ability to neutralize the viral infection of sera raised against the HLA homologous regions, mice sera are prepared by immunization with either S. MAP HLA or S. MAP HIV peptides. Sera are assayed for antibody ability to inhibit syncytium cells between HIV infected cells (8E51 LAV cells, AIDS Repository National Insitute of Health, Bethesda, Md. USA, “Journ. Exp. Medicine, 164, 280, 1986) and not infected, CD4+ cells (MOLT3 cells, AIDS Repository National Institute of Health, Bethesda, Md., USA). The syncytiums are counted at the optical microscope and the inhibition percentages are evaluated with reference to syncytiums in a control antibody-free cell culture. As specifity control, sera of mice before immunization are used.

T1 sequence (P03377 33-861): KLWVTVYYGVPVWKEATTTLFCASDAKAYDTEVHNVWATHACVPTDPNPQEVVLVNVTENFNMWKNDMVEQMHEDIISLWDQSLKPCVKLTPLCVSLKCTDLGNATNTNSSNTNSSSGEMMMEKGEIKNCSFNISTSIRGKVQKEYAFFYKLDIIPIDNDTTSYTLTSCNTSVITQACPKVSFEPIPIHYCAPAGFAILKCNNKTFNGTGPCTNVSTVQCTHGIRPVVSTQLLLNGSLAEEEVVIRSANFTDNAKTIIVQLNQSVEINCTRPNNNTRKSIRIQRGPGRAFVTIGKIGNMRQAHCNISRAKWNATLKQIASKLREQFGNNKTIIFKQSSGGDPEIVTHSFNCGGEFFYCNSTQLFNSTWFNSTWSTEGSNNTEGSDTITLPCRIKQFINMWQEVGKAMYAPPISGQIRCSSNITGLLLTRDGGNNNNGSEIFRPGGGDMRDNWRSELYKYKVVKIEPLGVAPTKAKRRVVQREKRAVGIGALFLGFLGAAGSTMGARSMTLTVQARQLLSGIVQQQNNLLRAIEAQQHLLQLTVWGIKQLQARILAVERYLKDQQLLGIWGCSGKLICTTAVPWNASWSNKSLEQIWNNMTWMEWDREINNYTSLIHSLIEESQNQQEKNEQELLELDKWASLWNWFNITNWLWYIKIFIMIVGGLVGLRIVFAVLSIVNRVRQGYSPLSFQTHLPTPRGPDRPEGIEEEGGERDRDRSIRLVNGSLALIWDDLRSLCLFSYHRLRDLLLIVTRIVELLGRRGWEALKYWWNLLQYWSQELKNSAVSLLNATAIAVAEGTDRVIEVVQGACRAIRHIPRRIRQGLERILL
Sequence of recombinant gp160 protein (P03377 33-861): as above

Sequence	binding to viral gp160 of AIDS serum antibodies pre-adsorbed on the peptide and eluted (viral gp160)	reactivity of sera / antibodies raised against native gp160 in HIV positive subjects with the peptide region (viral gp160)	other results
IEPLGVAPT [MAP HIV 9]	do not show any reactivity	none of sera from HIV positive subjects are reactive	
NLRKLRGYY [MAP HLA 12]	bind similarly to the viral gp160		binding to a 45 KD protein (likely HLA heavy chains) of AIDS serum antibodies pre-adsorbed on the peptide (viral gp160; one serum, lane E, FIG. 5): also bind to a 45 KD protein
PTKAKRRVV [MAP HIV 12]		react	
SELYKYKVVK [MAP HIV 11]		react	
SELYKYKVVKIEPLGVAPTKAKRRVV [S. MAP HIV]	bind similarly to the viral gp160		reaction of sera of peptide immunized mice with the recombinant gp160 protein [1]: react at significantly higher level; neutralization of viral fusion (syncytium inhibition) by antibodies of mice immunized with the peptide [2]: ability to neutralize the viral fusion
TQKYKRQAQ [MAP HLA 11]	bind similarly to the viral gp160		
TQKYKRQAQADRVNLRKLRGYY [S. MAP HLA, synthetic peptide from HLA class I heavy chain α-1 domain, allele Cw4]			reaction of sera of peptide immunized mice with the recombinant gp160 protein [1]: react specifically; neutralization of viral fusion (syncytium inhibition) by antibodies of mice immunized with the peptide [2]: same ability to neutralize the viral fusion
